The results in this text go back to patent US7955596B2 (priority 2003, dated 2011).

The test relates to B. anthracis strain 34F2ΔluxS. Format: cell-based.

Turning to `CCCCC1=C(Br)/C(=C/Br)OC1=O` [furanone 1, (5Z)-4-bromo-5-(bromomethylene)-3-butyl-2(5H)-furanone], the “Growth of the 34F2ΔluxS strain (OD600)” value is recorded as “dramatically inhibited”. Moreover, the “Growth inhibitory effect for 34F2ΔluxS relative to wild-type 34F2” value (20 μg/ml, 30 hrs) is on record as “prolonged”.
